Experimental data as given in patent US20120178089A1, “MATERIALS AND METHODS FOR THE IDENTIFICATION OF DRUG-RESISTANT CANCERS AND TREATMENT OF SAME” (priority 2009, published 2012).
Entries after “also recorded” stand apart in the source; their conditions may differ.

Assays:
[1] = biological target: Purified recombinant NEK2 kinase protein (Homo sapiens, UniProt P51955); conditions: read-out: IC50 (NEK2 kinase activity, titration assays); titration of screening hits
Procedure: NEK2 kinase activity assay. Purified recombinant NEK2 kinase protein (Cell Signaling Technology, Beverley, Mass.), was added to 96 well plates in the appropriate reaction buffer. Compounds were added to each well to a final concentration of 5 μM. Reaction mixtures were incubated for 15 minutes. The Kinase-Glo Luminescent Kinase Assay kit (Promega, Madison, Wis.) was used to determine the remaining ATP, which is inversely related to kinase activity.
By NEK2 kinase activity assay, we screened a Kinase Inhibitor Library from Calbiochem Inc. (San Diego, Calif.).

[2] = test system: NEK2 expression in MM, lung cancer and breast cancer cells; assay: Inhibition of NEK2 expression in cancer cell lines (western blots); type: cell-based; conditions: especially NEK2 over-expressed
Procedure: FIG. 7a is a graph showing the results of screening a Kinase Inhibitor Library.
Western Blots. Western blots were performed to examine the protein levels in MM cells as previously described in Xiong, W., et al. Blood 112, 4235-4246 (2008) and Zhan, F., et al. Blood 109, 4995-5001 (2007). NEK2 antibodies were purchased from BD Biosciences Pharmingen (San Jose, Calif.); and all other primary antibodies were purchased from Cell Signaling Technology (Beverly, Mass.). β-actin was used to normalize the amount of protein in each sample.

[3] = test system: NEK2-transfected OCI-MY5, H1299 and MCF7 cells and EV control cells; assay: Cytotoxic effects of KP372-1 on NEK2-overexpressing cell lines; type: cell-based; conditions: 5 μM, 5 days
Procedure: Cell proliferation assay. Briefly, cancer cells transfected with NEK2 cDNA or NEK2 shRNA and their relative controls of empty vector or Scrambled shRNA were seeded in 12-well plates at 0.2×10^6 per well. All tests were set in triplicate or quadruplicate. Cultured cells were counted with a hemocytometer to evaluate cellular proliferation, and dead cells were determined by trypan blue staining, from which dead-cell fraction was calculated. Cell proliferation assays were done at various time points for at least one week after infection or addition doxycycline one day.
We then determined the cytotoxic effects of this compound KP372-1 on the NEK2-overexpressing myeloma cell lines. Cultures of cell lines transfected with a vector for overexpression of NEK2 (myeloma OCI-MY5, a lung cancer cell line H1299, and a breast cancer cell line MCF7) were treated with 5 μM KP372-1 for 5 days. Cell proliferation and cell death were evaluated. Empty vector (EV)-transfected cancer cells with or without treatment were used as controls.

[4] = test system: KMS28PE and ARP1 cells, bortezomib-resistant (vel-R) and bortezomib-sensitive; assay: KP372-1 treatment of bortezomib-resistant and bortezomib-sensitive myeloma cell lines; type: cell-based
Procedure: FIGS. 9a-9d are a series of graphs showing the treatment with KP372-1 overcomes drug-resistance in cancer cells. The myeloma cell lines KMS28PE (A & B) and ARP1 (C & D) including both bortezomib-sensitive and bortezomib-resistant (vel-R) were treated with KP372-1 at concentrations of 1 μM and 5 μM for 5 days.
To determine whether the NEK2 inhibitor KP372-1 can overcome drug resistance in KMS28PE- and ARP1-bortezomib resistant myeloma cell lines, we treated with KP372-1 at concentrations of 1 μM and 5 μM.

[5] = test system: 5TGM1 multiple myeloma cells; assay: Efficacy of KP372-1 in a mouse model of multiple myeloma; type: in vivo, C57BL/KaLwRij mice; conditions: for tumor burden (tumor volumes): FIG. 10b
Procedure: Efficacy of KP372-1 in a mouse model of multiple myeloma. C57BL/KaLwRij mice (n=5 in each group) were injected with 1×10^6 5TGM1 cells through their tail vein. Seven days following tumor inoculation, tumor-bearing mice were treated with KP372-1, bortezomib or a combination of KP372-1 with bortezomib.
KP372-1 (NI-2) was used to treat 8 mice in each study group including four groups with single agent or combination with bortezomib (velcade). 1×10^6 5TGM1 multiple myeloma cells (in 100 μL PBS) were injected into each mouse through the tail vein and tumors were allowed to grow for 1 week. Treatment with bortezomib (1 mg/kg, 2 times/week, sc), NI-2 (0.8 mg/kg 3 times/week, sc), and the combination of KP372-1 (NI-2) with bortezomib (velcade) was performed 1 week after injection.
We also developed a bortezomib-resistant 5TGM1 line (5TGM1-DR) using a stepwise increase of the bortezomib concentration in the cultures. […] We examined the effects of KP372-1 treatment on the growth of 5TGM1 myeloma mouse. KP372-1 was given to 8 mice in each of the five groups, including single agent or combination treatment with bortezomib: 5TGM1-WT, 5TGM1-DR, 5TGM1-DR+KP372-1 (0.8 mg/kg, 3 times/week, s.c), 5TGM1-DR+bortezomib (1 mg/kg, 2 times/week, s.c), 5TGM1-DR+bortezomib+KP372-1.

RPMI8226 cells = assay: Bortezomib treatment of bortezomib-resistant and parental RPMI8226 cells; type: cell-based; conditions: Homo sapiens
Excerpt: (§1) To test the role of NEK2 in promoting cell growth, we over-expressed NEK2 in normal fibroblasts BJ, the MM cell lines ARP1, KMS28PE, and OCI-MY5, the lung cancer cell line H1299, and breast cancer cell line MDA231 by lentivirus-mediated NEK2-cDNA transfection (FIG. 2a). […] We subsequently examined the role of NEK2 in myeloma drug-resistance. We developed 2 bortezomib-resistant MM cell lines, RPMI 8226 and ARP1, by a stepwise increase of the bortezomib concentration in cultures.

ARP1 cells = assay: Bortezomib treatment of bortezomib-resistant and parental ARP1 cells; type: cell-based
Excerpt: as §1

5TGM1 cells = assay: Bortezomib treatment of bortezomib-resistant and wild-type 5TGM1 cells; type: cell-based
[6] = test system: NEK2-transfected ARP1, KMS28PE, H1299, MCF7, and MDA231 cells; assay: Treatment of NEK2-overexpressing cancer cells with chemotherapeutic drugs; type: cell-based; conditions: 48 hours; for growth inhibition in NEK2-transfected cells compared with EV-transfected controls: P<0.05; for cell death in NEK2-transfected cells compared with EV-transfected controls: P<0.05, data not shown
Procedure: Treatment of NEK2-overexpressing MM cells with chemotherapeutic drugs. To determine the role of NEK2 in cancer drug-resistance, ARK, KMS28PE, OCI-MY5, H1299, and MCF7 cell lines were transfected with NEK2-cDNA to overexpress NEK2 by lentivirus expression vector system. 1×10^6 cells were treated with bortezomib at 5 nM for 48 hours in the cultures. Cell proliferation was evaluated by cell counting with a hemocytometer, and dead cells were determined by trypan blue staining, from which dead-cell fraction was calculated. Untreated cells and empty-vector (EV)-transfected cells with or without drug-treatment were used as controls.
To determine whether NEK2 over-expression is sufficient to confer drug-resistance in cancer cells, NEK2-transfected ARP1, KMS28PE, H1299, MCF7, and MDA231 cells were then treated with bortezomib at the dose of 4, 8, and 16 nM bortezomib for 48 hours and cell death was evaluated. EV-transfected cells with or without bortezomib served as controls.

[7] = NEK2-transfected and EV control cells
[8] = KP372-1 1 μM and 5 μM, 5 days, both vel-R and sensitive lines

Sequence of Purified recombinant NEK2 kinase protein (P51955 whole entry): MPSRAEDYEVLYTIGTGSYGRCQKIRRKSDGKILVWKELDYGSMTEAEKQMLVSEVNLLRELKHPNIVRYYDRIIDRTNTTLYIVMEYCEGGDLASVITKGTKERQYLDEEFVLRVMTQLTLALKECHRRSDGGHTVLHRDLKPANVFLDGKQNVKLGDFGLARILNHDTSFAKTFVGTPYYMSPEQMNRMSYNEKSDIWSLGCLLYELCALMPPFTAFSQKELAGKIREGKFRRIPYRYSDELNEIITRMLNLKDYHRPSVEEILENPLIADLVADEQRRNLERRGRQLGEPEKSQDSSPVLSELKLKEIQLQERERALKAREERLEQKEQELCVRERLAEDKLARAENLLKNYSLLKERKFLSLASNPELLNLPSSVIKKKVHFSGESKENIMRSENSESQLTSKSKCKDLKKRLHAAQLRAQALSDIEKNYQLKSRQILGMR

`O=C1c2ccccc2-c2nc3nnnn3nc21.O=C1c2ccccc2-c2nn3nnnc3nc21` [KP372-1] was tested, and the IC50 [1] was 67 nM, the NEK2 expression [2] was “significantly inhibits NEK2 expression” and the NEK2 expression ([2]; listed as NI-2) was “inhibits NEK2 expression”. For the same compound, the “anti-proliferative and apoptotic activity, NEK2-transfected versus EV control cells” value [3] was “stronger anti-proliferative and apoptotic activity in the NEK2-transfected cells than the EV control cells”, the cell death [3, 7] was “induced significantly cell death; also recorded: induced cell growth inhibition and death” and the growth inhibition [3, 7] was “induced significantly cell death and growth inhibition”. For the same compound, the cell death [4, 8] was “cell death”, the growth inhibition [4, 8] was “significant growth inhibition” and the “tumor burden (tumor volumes)” value ([5]; P<0.05) was “reduced tumor burden”. For the same compound, the “mouse survival, 5TGM1-DR mice” value ([5]; KP372-1 0.8 mg/kg, 3 times/week, s.c, P<0.01) was “able to overcome drug resistance and extend mouse survival” and the “growth of 5TGM1 tumors compared with untreated control” value ([5]; NI-2 0.8 mg/kg 3 times/week sc, bortezomib 1 mg/kg 2 times/week sc, start 1 week after injection, P<0.05) was “significantly inhibited the growth of 5TGM1 tumors”.
Compound `CC(C)C[C@H](NC(=O)[C@H](Cc1ccccc1)NC(=O)c1cnccn1)B(O)O` [bortezomib] has an IC50 (RPMI8226 cells; RPMI-8226, parental RPMI8226 cells) of 4.75 nM, an IC50 (RPMI8226 cells; bortezomib-resistant RPMI8226 cells) of 250 nM and an IC50 (ARP1 cells; ARP-1, bortezomib-resistant ARP1 cells) of 25.8 nM. It also gave an IC50 (ARP1 cells; ARP-1, parental ARP1 cells) of 7.47 nM, an IC50 (5TGM1 cells; 5TGM1, 5TGM1-R (bortezomib-resistant)) of 250 nM and an IC50 (5TGM1 cells; 5TGM1, wild-type 5TGM1 cells (5TGM1-WT)) of 5.26 nM. The “growth inhibition in NEK2-transfected cells compared with EV-transfected controls” value ([6]; 8 nM) was “significantly less growth inhibition”, the “cell death in drug-resistant cells compared with parental controls” value ([4]; bortezomib treatment) was “significantly less growth inhibition and cell death” and the “growth inhibition in drug-resistant cells compared with parental controls” value ([4]; bortezomib treatment) was “significantly less growth inhibition”. The “tumor burden (tumor volumes)” value ([5]; P<0.05) was “reduced tumor burden”.
`COc1cccc2c1C(=O)c1c(O)c3c(c(O)c1C2=O)C[C@@](O)(C(=O)CO)C[C@@H]3O[C@H]1C[C@H](N)[C@H](O)[C@H](C)O1` [doxorubicin] was tested, and the “growth inhibition in NEK2-transfected cells compared with EV-transfected controls” value ([6]; 100 nM) was “significantly less growth inhibition” and the “cell death in NEK2-transfected cells compared with EV-transfected controls” value ([6]; 100 nM) was “significantly less”.
For `COc1cc([C@@H]2c3cc4c(cc3[C@@H](O[C@@H]3O[C@@H]5CO[C@@H](C)O[C@H]5[C@H](O)[C@H]3O)[C@H]3COC(=O)[C@H]23)OCO4)cc(OC)c1O` [etoposide], the “growth inhibition in NEK2-transfected cells compared with EV-transfected controls” value ([6]; 100 nM) was “significantly less growth inhibition” and the “cell death in NEK2-transfected cells compared with EV-transfected controls” value ([6]; 100 nM) was “significantly less”.
